Data taken from ChEMBL document CHEMBL1149021, “Vasoactive substances from Saussurea lappa” (J Nat Prod, 1986).
Activity calls are given as the source filed them. No cut-off for these calls is given here.

Species: Oryctolagus cuniculus
Assay: Vasorelaxant activity in rabbit aorta assessed as inhibition of KCl-induced contraction
Assay type: functional, tissue-based

Structure (SMILES) | Activity
C=C1CC[C@H]2C(=C)C(=O)O[C@@H]2C2C(=C)CCC12 (some centres not stated) | Active
C=C1C(=O)O[C@@H]2/C=C(\C)CC/C=C(\C)CC[C@@H]12 | Active
